Source: publication PMC10313070, “Design, in silico and pharmacological evaluation of a peptide inhibitor of BACE-1” (Frontiers in Pharmacology, 2023)
“Also recorded” adds a separate entry of the source. No end group written: not given here.

Columns and labels:
SH-SY5Y cells = system: SH-SY5Y cells; design: method as in Lee et al., 2019; conditions: ref Lee et al., 2019; cited from earlier work
BACE-1 [1] = system: BACE-1; design: method as in Lee et al., 2019; conditions: ref Lee et al., 2019; cited from earlier work
in vivo = experiment: in vivo; design: species or system mice; conditions: mouse
Method: Authorization for pharmacokinetics analyses was obtained from the Ethics Committee of Instituto Butantan (CEUAIB 58872400322), where the experiments with animals were carried out. Healthy adult male Swiss mice weighing approximately 25 g were used. All animals were placed in microisolators for a 12-h light/dark cycle, 70% humidity, and a constant average temperature (22°C).
(§1) A single dose of the peptide diluted in sterile PBS (pH 7.4) was injected intravenously in the bolus into the caudal vein of mice (n = 3) at a concentration of 4 mg/kg (0.2 mL). A group of animals (n = 3) received the sterile saline solution for the plasma and organ control, without the peptide (named ‘basal’). Blood was taken after 0, 5, and 30 min and 2, 6, and 24 h after injection. At these times, blood was collected via the retro-orbital route using a Pasteur pipette and dispensed into plastic tubes containing EDTA. The final blood volume was subjected to centrifugation at 1,500 rpm for 10 min at room temperature to obtain plasma, which was stored in a −80°C freezer until the analysis.
(§2) Both plasma and organs (150 μL) were incubated with 100 mM DL-dithiothreitol at room temperature for 30 min; after that, they were incubated to 300 mM iodoacetamide at room temperature for another 30 min in the dark. Subsequently, 150 μL of 0.1% formic acid solution and 400 μL of Milli-Q water were added and agitated for 5 min. The samples were then submitted to solid-phase extraction using a C18 cartridge (Supelco) with elution in a 60:40 acetonitrile:water solution (v/v). The eluate was inserted by mass spectrometry for analysis and quantification.
(§3) The determination and quantification of the peptide in plasma and organs of mice were performed by liquid chromatography (UPLC system, Waters Co.) coupled to mass spectrometry ESI-Xevo TQ-S (Waters Co., United States). The samples were inserted in a C18 column (Luna, 5 μm, 150 × 4.6 mm, Phenomenex) and eluted by 70% methanol in water, containing 0.05% formic acid in a constant flow of 0.3 mL/min. The ion was monitored at the positive ionization mode, 150°C source temperature, 550°C desolvation temperature, 800 L/h desolvation gas flow, 2 kV for capillary, and […] cone voltage. Data were acquired and analyzed using MassLynx 4.
(§4) To define the relationship between the instrument response and the known concentration of the peptide, a calibration curve with six points of the peptide (0.1–20 μg/mL for plasma and 5–40 μg/mL for organs) was generated in a range defined according to the sensitivity of the method and the expected concentrations of the samples in animals (based on the amount of peptide injected).
Each analysis lot contained the following samples: a calibration curve consisting of a blank sample (peptide-free biological matrix), samples containing peptide standard, and plasma or organ samples. Calibration functions were calculated using the peak areas of the peptide. The peptide concentrations in the samples were calculated from the weighted linear regression equation (1/×2) obtained from the calibration curve (peptide concentration as the function of the area). This regression model (1/×2) was used because of the amplitude of the calibration curve.
(§5) The plasma concentration (Cp), in µg/L, was determined by mass spectrometric analysis, and then, area data were analyzed using the PKSolver add-in program for Microsoft Excel. Pharmacokinetics parameters as the natural logarithm of Cp (lnCp), Cp0, half-life, and clearance were calculated in a compartmental analysis of plasma data after the intravenous bolus input ([Zhang et al., 2010]). For organs, data are present as mean ± SD for each point.

recombinant BACE-1 = target: T1, recombinant BACE-1 (Homo sapiens, UniProt P56817); experiment: Enzymatic kinetics on recombinant BACE-1 (Lineweaver-Burk); type: biochemical; conditions: 10 μM peptide, substrate 0–32 µM
T1 construct: purchased Sigma-Aldrich MAK237
Method: The peptide was commercially obtained (manufactured by Biotik, commercialized by FastBio, Brazil) and synthetized by the solid phase with >95% purity. The peptide was tested using an enzymatic kinetics model, in which 10 μM of peptide (diluted in 0.9% saline solution) was incubated with recombinant BACE-1 and reaction buffer for 15 min at room temperature (MAK237, Sigma-Aldrich, St Louis, MO, United States). After that, H-Arg-Glu (EDANS)[…](DABCYL)Arg-OH quencher substrate (0–32 µM) was added to the reaction mixture. Readings were taken using a fluorimeter (Glomax, Promega, Madison, WI, United States) every 5 min at 37° in a λex = 335 and λem = 510. Experiments were conducted in triplicate in two independent sets, and the mean of fluorescence was obtained for further calculations. The velocity of the reaction was calculated as ∆ fluorescence values at ∆ time for each substrate concentration. 1/V and 1/S values were obtained and plotted in a graph (Lineweaver–Burk plot), and kinetic parameters (slope, Vmax, Km, and Ki) were calculated as the mean ± SD using GraphPad Prism v5.

[2] = Peptide quantification in mouse organs by mass spectrometry; type: in vivo; conditions: mice, 4 mg/kg i.v.
Method: as §1
Moreover, organs were obtained at the same times, after a lethal injection of anesthetics (ketamine 300 mg/kg and xylazine 30 mg/kg). The organs collected included the brain, pancreas, spleen, kidneys, lungs, and liver. The organs were washed with the saline solution to remove excess blood, frozen in liquid nitrogen, and kept at −80°C until use. For the experiments, organs were submerged in 1 mL of 50 mM PBS with pH 7.5 containing peptidases inhibitors (aprotinin, bestatin, E-64, leupeptin, and pepstatin A, a protease inhibitor cocktail, Sigma-Aldrich) and lysed in a tissue and cell disruptor (ULTRA-TURRAX IKA, Staufen, Germany). The lysate was centrifuged for 2 min at 13,200 rpm at 4°C, and the supernatant resulting from centrifugation was stored in a −80°C freezer until the analysis.
as §2, §3, §4, §5

[3] = Histology of organs and toxicity after peptide injection; type: in vivo, mice
Description: Organs were removed and immediately fixed in Bouin’s solution for processing by dehydration ethanol sessions and historesin embedding to obtain 3 µm thick transversal slides. Sections were stained with hematoxylin–eosin and examined using a light microscope for a qualitative analysis.

BACE-1 [4] = system: BACE-1; design: method as in Wu et al., 2016; conditions: ref Wu et al., 2016; cited from earlier work

T1 sequence (P56817 46-501): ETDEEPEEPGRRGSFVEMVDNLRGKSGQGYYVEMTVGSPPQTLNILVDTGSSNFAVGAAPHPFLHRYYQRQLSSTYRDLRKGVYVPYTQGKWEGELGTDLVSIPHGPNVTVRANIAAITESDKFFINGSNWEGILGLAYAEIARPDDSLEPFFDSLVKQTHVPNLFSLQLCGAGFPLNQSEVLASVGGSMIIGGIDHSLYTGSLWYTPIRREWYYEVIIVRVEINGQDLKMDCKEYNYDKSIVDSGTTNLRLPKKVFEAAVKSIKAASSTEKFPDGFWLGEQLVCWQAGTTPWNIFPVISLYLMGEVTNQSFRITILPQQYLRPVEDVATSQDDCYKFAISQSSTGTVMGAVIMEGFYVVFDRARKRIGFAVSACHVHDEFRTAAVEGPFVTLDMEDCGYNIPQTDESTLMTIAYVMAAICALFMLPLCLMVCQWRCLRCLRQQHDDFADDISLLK

For Leu–Asn, the “Aβ production in SH-SY5Y cells” value (SH-SY5Y cells) is given as “reducing the Aβ production” and the “BACE-1 inhibitory activity among fragments derived from the original peptide” value (BACE-1 [1]) is given as “most potent activity”.
For SLAFVDVLN [peptide], the AUC(0-inf) (in vivo; male, Swiss, iv, 4 mg/kg) was 2600 ng·h/mL, the AUC(0-t) (in vivo; male, Swiss, iv, 4 mg/kg) was 2600 ng·h/mL and the C0 (in vivo; male, Swiss, iv, 4 mg/kg) was 2600 ng/mL. For the same substance, the MRT (in vivo; male, Swiss, iv, 4 mg/kg) was 1 h, the half-life (in vivo; male, Swiss, iv, 4 mg/kg, t1/2) was ~1 h and the Vss (in vivo) was 0.0015. The clearance (in vivo) was 0.0015, the “Enzymatic cleavage of the peptide in vivo (intact mass, fragments by mass spectrometry)” value (in vivo; iv) was “no enzymatic cleavage” and the AUMC (in vivo; iv, 4 mg/kg) was 2,595.96 μg/L*h^2. The CL (in vivo; iv, 4 mg/kg) was 0.00154 (mg/kg)/(μg/L)/h, the V (in vivo; iv, 4 mg/kg) was 0.00154 (mg/kg)/(μg/L) and the Vss (in vivo; iv, 4 mg/kg) was 0.0015 mg/kg/(μg/L). The Ki (recombinant BACE-1) was 94 nM, the “Peptide concentration in the kidneys over time” value [2] was “increased 30 min after the injection, slightly decreased after 2 h, but increased after 6 h” and the “Time of peak of the peptide in the brain” value [2] was 2 h. For the same substance, the “Time of peak of the peptide in the liver” value [2] was 30 min, the “Time of peak of the peptide in the spleen” value [2] was 30 min and the “Time the peptide could be found in the brain” value [2] was “up to 6 h”. For the same substance, the “Peptide concentration in the lungs” value ([2]; 5 min after injection) was “high concentration”, the “Peptide in the pancreas” value ([2]; 4 mg/kg) was “not possible to identify; also recorded: could not be found” and the “Clinical signals of toxicity” value ([3]; mice, single dose) was “no clinical signals of toxicity were observed”. For the same substance, the “Histological alterations (cell/tissue morphology, inflammatory infiltrate)” value ([3]; spleen, liver, pancreas, lungs, kidneys, 5 and 30 min, 2 and 6 h after single 4 mg/kg i.v. dose, 4 mg/kg) was “no morphological alteration in any organ; also recorded: No alterations were detected”.
For pyrazinecarboxamide, the IC50 (BACE-1 [4]) is given as < 1 nM.
